The source of these data is BindingDB's records for doi:10.3109/14756369709035816 (R & D, Zambon Group, 1997).

Each structure is given as a SMILES string.

The target of the experiment is T1, Neprilysin (Rattus norvegicus, UniProt P07861).
T1 sequence (P07861 whole entry): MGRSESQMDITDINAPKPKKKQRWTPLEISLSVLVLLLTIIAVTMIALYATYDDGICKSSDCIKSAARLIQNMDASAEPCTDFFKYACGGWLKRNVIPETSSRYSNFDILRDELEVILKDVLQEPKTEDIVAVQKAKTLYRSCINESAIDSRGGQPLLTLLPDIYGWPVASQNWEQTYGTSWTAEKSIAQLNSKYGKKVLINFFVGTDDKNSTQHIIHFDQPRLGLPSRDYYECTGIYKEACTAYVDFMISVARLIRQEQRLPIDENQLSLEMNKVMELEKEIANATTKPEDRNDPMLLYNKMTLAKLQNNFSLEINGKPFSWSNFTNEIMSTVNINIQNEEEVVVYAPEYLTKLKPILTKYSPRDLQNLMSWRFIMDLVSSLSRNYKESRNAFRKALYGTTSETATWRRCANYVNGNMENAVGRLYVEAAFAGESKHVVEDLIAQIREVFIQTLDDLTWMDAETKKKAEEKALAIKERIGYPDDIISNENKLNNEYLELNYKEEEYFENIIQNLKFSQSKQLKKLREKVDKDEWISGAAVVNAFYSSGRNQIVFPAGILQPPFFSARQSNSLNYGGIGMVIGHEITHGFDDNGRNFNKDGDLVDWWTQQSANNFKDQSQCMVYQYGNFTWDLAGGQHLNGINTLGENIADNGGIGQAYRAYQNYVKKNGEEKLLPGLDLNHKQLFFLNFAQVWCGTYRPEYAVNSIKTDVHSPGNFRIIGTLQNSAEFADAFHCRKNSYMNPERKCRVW
Kind of experiment: Enzyme Inhibition Assay. The conditions noted are these: 25 °C. The source says: Enzyme inhibition assay using neutrol endopeptiase EC 3.4.24.11 (NEP).
With `CC(CS)C(=O)Nc1cncc(C(=O)O)c1` (configuration not stated) [NEP inhibitor, 6g], the concentration for half-maximal inhibition (IC50) – broadly, the point on the concentration scale where inhibition reaches its midpoint – worked out at 60 nM.

`O=C(O)c1cncc(NC(=O)C(CS)Cc2ccccc2)c1` (configuration not stated) [NEP inhibitor, 6h] came in with an IC50 of 5 nM.

In turn, `O=C(O)c1ccnc(NC(=O)C(CS)Cc2ccccc2)c1` (configuration not stated) [NEP inhibitor, 6i] yielded an IC50 of 3 nM.

`O=C(O)c1ccnc(NC(=O)C(CS)Cc2ccc3c(c2)OCO3)c1` (configuration not stated) [NEP inhibitor, 6j] displayed an IC50 of 5.5 nM.

With `O=C(O)c1cc(NC(=O)C(CS)Cc2ccccc2)cs1` (configuration not stated) [NEP inhibitor, 6k], the IC50 is 2 nM.

Take `O=C(O)c1cc(NC(=O)C(CS)Cc2cccnc2)cs1` (configuration not stated) [NEP inhibitor, 6l]: inhibition was half-maximal at 13 nM (IC50).

Take `O=C(O)c1cc(NC(=O)C(CS)Cc2ccccc2)c[nH]1` (configuration not stated) [NEP inhibitor, 6m]: the IC50 is 2 nM.

In the case of `O=C(O)c1cc(NC(=O)C(CS)Cc2ccc(Cl)cc2)c[nH]1` (configuration not stated) [NEP inhibitor, 6n], half-maximal inhibition (IC50) was put at 2 nM.

As for `O=C(O)c1csc(NC(=O)C(CS)Cc2ccccc2)n1` (configuration not stated) [NEP inhibitor, 6p], inhibition was half-maximal at 9 nM (IC50).

`O=C(Nc1ccn[nH]1)C(CS)Cc1ccccc1` (configuration not stated) [NEP inhibitor, 6q] displayed an IC50 of 23 nM.

In turn, `CN(C)C(=O)c1ccnc(NC(=O)C(CS)Cc2ccccc2)c1` (configuration not stated) [NEP inhibitor, 6r] had an IC50 of 5 nM.

`O=C(Nc1ccccc1)c1ccnc(NC(=O)C(CS)Cc2ccccc2)c1` (configuration not stated) [NEP inhibitor, 6s] had an IC50 of 250 nM.
